Literature values in patent US11747352B2 (Concordia University, Inc., priority 2017, dated 2023).
Where two headings read alike, the source gives them in different places.

What was measured:
[1] = cited from earlier work
[2] = cited from earlier work; remark: listed apart in the source

Q: Which “HALF LIFE” value ([1]; Table CYP1A2) does the source give for `COc1ccc2cccc(CCNC(C)=O)c2c1` [Agomelatine] here?
A: 1 to 2 h

Q: Which “HALF LIFE” value ([1]; Table CYP2D6) does the source give for `C=CCc1ccccc1OCC(O)CNC(C)C` (stereo not shown) [Alprenolol] here?
A: 2 to 3 h

Q: Which “HALF LIFE” value ([1]; Table CYP1A2) does the source give for `CN(C)CCC=C1c2ccccc2CCc2ccccc21` [Amitriptyline] here?
A: ~13 to 36 h

Q: And the “HALF LIFE” value ([1]; Table CYP2D6)?
A: ~13 to 36 h

Q: What about the “ORAL BIOAVAILABILITY” value ([2]; Table CYP2C9) of the same molecule?
A: 30-60% ^

Q: And the “ORAL BIOAVAILABILITY” value ([2]; Table CYP2D6)?
A: ~43-46% ^

Q: With `CCOC(=O)C1=C(COCCN)NC(C)=C(C(=O)OC)C1c1ccccc1Cl` (stereo not shown) [Amlodipine] as the molecule, how does the “ORAL BIOAVAILABILITY” value ([2]; Table CYP3A4) read?
A: 64-90% ^

Q: Which “ORAL BIOAVAILABILITY” value ([2]; in vivo, po) does the source give for `CC(N)Cc1ccccc1` (stereo not shown) [Amphetamine] here?
A: 100%

Q: For `C[C@@H](O[C@H]1OCCN(Cc2n[nH]c(=O)[nH]2)[C@H]1c1ccc(F)cc1)c1cc(C(F)(F)F)cc(C(F)(F)F)c1` [Aprepitant], which “ORAL BIOAVAILABILITY” value ([2]; Table CYP3A4) is on record?
A: 60-65% ^

Q: For `COC(=O)N[C@H](C(=O)N[C@@H](Cc1ccccc1)[C@@H](O)CN(Cc1ccc(-c2ccccn2)cc1)NC(=O)[C@@H](NC(=O)OC)C(C)(C)C)C(C)(C)C` [Atazanavir], which “ORAL BIOAVAILABILITY” value ([2]; Table CYP3A4) is on record?
A: 60-68% ^

Q: With `CC(C)C[C@H]1C(=O)N2CCC[C@H]2[C@]2(O)O[C@](NC(=O)[C@@H]3C=C4c5cccc6[nH]c(Br)c(c56)C[C@H]4N(C)C3)(C(C)C)C(=O)N12` [Bromocriptine] as the molecule, how does the “ORAL BIOAVAILABILITY” value ([2]; Table CYP3A4) read?
A: 65-95% ^

Q: Which “ORAL BIOAVAILABILITY” value ([2]; Table CYP3A4) does the source give for `CCCC1O[C@@H]2C[C@H]3[C@@H]4CCC5=CC(=O)C=C[C@]5(C)[C@H]4[C@@H](O)C[C@]3(C)[C@]2(C(=O)CO)O1` (stereo partly shown) [Budesonide] here?
A: 9-21%^

Q: For `COc1ccccc1OCCNCC(O)COc1cccc2[nH]c3ccccc3c12` (stereo not shown) [Carvedilol], which “HALF LIFE” value ([1]; Table CYP2D6) is on record?
A: 6 to 10 h

Q: What about the “ORAL BIOAVAILABILITY” value ([2]; Table CYP2D6) of the same molecule?
A: 25-35% ^

Q: With `COc1cc(N)c(Cl)cc1C(=O)NC1CCN(CCCOc2ccc(F)cc2)CC1OC` (stereo not shown) [Cisapride] as the molecule, how does the “ORAL BIOAVAILABILITY” value ([2]; Table CYP3A4) read?
A: 35-65% ^

Q: Which “HALF LIFE” value ([1]; Table CYP1A2) does the source give for `CN1CCN(C2=Nc3cc(Cl)ccc3Nc3ccccc32)CC1` [Clozapine] here?
A: 4 to 66 h

Q: For `COc1ccc2c3c1O[C@H]1[C@@H](O)C=C[C@H]4[C@@H](C2)N(C)CC[C@@]341` [Codeine], which “HALF LIFE” value ([1]; in vivo) is on record?
A: 2.5 to 3 h

Q: For `CN(C)CCC=C1c2ccccc2C=Cc2ccccc21` [Cyclobenzaprine], which “HALF LIFE” value ([1]; Table CYP1A2) is on record?
A: 8 to 37 h

Q: Which “HALF LIFE” value ([1]; in vivo) does the source give for `CCN[C@@H](C)Cc1cccc(C(F)(F)F)c1` [Dexfenfluramine] here?
A: 17 to 20 h

Q: For `CN[C@@H](C)Cc1ccccc1` [Dextromethamphetamine], which “HALF LIFE” value ([1]; Table CYP2D6) is on record?
A: 12 h

Q: For `COc1ccc2c(c1)[C@]13CCCC[C@@H]1[C@H](C2)N(C)CC3` [Dextromethorphan], which “HALF LIFE” value ([1]; in vivo) is on record?
A: 1.4 to 3.9 h

Q: With `O=C(O)Cc1ccccc1Nc1c(Cl)cccc1Cl` [Diclofenac] as the molecule, how does the “HALF LIFE” value ([1]; Table CYP2C9) read?
A: 1.9 to 2.2 h

Q: For `CNCC[C@H](Oc1cccc2ccccc12)c1cccs1` [Duloxetine], which “ORAL BIOAVAILABILITY” value ([2]; Table CYP2D6) is on record?
A: 30-80% ^

Q: With `O=C1Nc2ccc(Cl)cc2[C@@](C#CC2CC2)(C(F)(F)F)O1` [Efavirenz] as the molecule, how does the “ORAL BIOAVAILABILITY” value ([2]; Table CYP3A4) read?
A: 40-45% ^

Q: Which “HALF LIFE” value ([1]; Table CYP2D6) does the source give for `COc1ccc(C(=O)Nc2ccccc2CCC2CCCCN2C)cc1` (stereo not shown) [Encainide] here?
A: 11.3 h

Q: And the “ORAL BIOAVAILABILITY” value ([2]; Table CYP2D6)?
A: 25-90% ^

Q: With `CC[C@H]1OC(=O)[C@H](C)[C@@H](O[C@H]2C[C@@](C)(OC)[C@@H](O)[C@H](C)O2)[C@H](C)[C@@H](O[C@@H]2O[C@H](C)C[C@H](N(C)C)[C@H]2O)[C@](C)(O)C[C@@H](C)C(=O)[C@H](C)[C@@H](O)[C@]1(C)O` [Erythromycin] as the molecule, how does the “ORAL BIOAVAILABILITY” value ([2]; Table CYP3A4) read?
A: 30-65% ^

Q: For `C#C[C@]1(O)CC[C@H]2[C@@H]3CCc4cc(O)ccc4[C@H]3CC[C@@]21C` [Ethinyl Estradiol], which “ORAL BIOAVAILABILITY” value ([2]; Table CYP3A4) is on record?
A: 38-48% ^

Q: Which “ORAL BIOAVAILABILITY” value ([2]; Table CYP3A4) does the source give for `CCOC(=O)C1=C(C)NC(C)=C(C(=O)OC)C1c1cccc(Cl)c1Cl` (stereo not shown) [Felodipine] here?
A: 13-20% ^

Q: For `O=C(NCC1CCCCN1)c1cc(OCC(F)(F)F)ccc1OCC(F)(F)F` (stereo not shown) [Flecainide], which “ORAL BIOAVAILABILITY” value ([2]; Table CYP2D6) is on record?
A: 70-95% ^

Q: For `CNCCC(Oc1ccc(C(F)(F)F)cc1)c1ccccc1` (stereo not shown) [Fluoxetine], which “HALF LIFE” value ([1]; Table CYP2C9) is on record?
A: 96 to 140 h

Q: And the “HALF LIFE” value ([1]; Table CYP2D6)?
A: 96 to 140 h

Q: And the “ORAL BIOAVAILABILITY” value ([2]; Table CYP2C9)?
A: 60-80% ^

Q: And the “ORAL BIOAVAILABILITY” value ([2]; Table CYP2D6)?
A: 60-80% ^

Q: Which “HALF LIFE” value ([1]; Table CYP1A2) does the source give for `COCCCC/C(=N\OCCN)c1ccc(C(F)(F)F)cc1` [Fluvoxamine] here?
A: ~14 to 16 h

Q: With `CCC1=C(C)CN(C(=O)NCCc2ccc(S(=O)(=O)NC(=O)N[C@H]3CC[C@H](C)CC3)cc2)C1=O` [Glimepiride] as the molecule, how does the “HALF LIFE” value ([1]; Table CYP2C9) read?
A: 5 to 9.2 h

Q: Which “HALF LIFE” value ([1]; Table CYP1A2) does the source give for `O=C(CCCN1CCC(O)(c2ccc(Cl)cc2)CC1)c1ccc(F)cc1` [Haloperidol] here?
A: 14 to 37 h

Q: And the “HALF LIFE” value ([1]; Table CYP2D6)?
A: 14 to 37 h

Q: For `COc1ccc2c3c1O[C@H]1C(=O)CC[C@H]4[C@@H](C2)N(C)CC[C@]314` [Hydrocodone], which “HALF LIFE” value ([1]; in vivo) is on record?
A: 7 to 9 h

Q: Which “HALF LIFE” value ([1]; Table CYP2D6) does the source give for `COc1cc(C(C)=O)ccc1OCCCN1CCC(c2noc3cc(F)ccc23)CC1` [Iloperidone] here?
A: 18 to 33 h

Q: Which “ORAL BIOAVAILABILITY” value ([2]; Table CYP2D6) does the source give for `CN(C)CCCN1c2ccccc2CCc2ccccc21` [Imipramine] here?
A: 94-96% ^

Q: Which results are given for `CCCCC1=NC2(CCCC2)C(=O)N1Cc1ccc(-c2ccccc2-c2nnn[nH]2)cc1` [Irbesartan]?
A: HALF LIFE ([1]; Table CYP2C9): 11 to 15 h; ORAL BIOAVAILABILITY ([2]; Table CYP2C9): 60-80% ^

Q: For `COC(=O)C1=C(C)NC(C)=C(C(=O)OC(C)C)C1c1cccc2nonc12` (stereo not shown) [Isradipine], which “ORAL BIOAVAILABILITY” value ([2]; Table CYP3A4, CR) is on record?
A: CR: 15-24% ^

Q: And the “ORAL BIOAVAILABILITY” value ([2]; Table CYP3A4, IR)?
A: IR: 90-95% ^

Q: Which “HALF LIFE” value ([1]; in vivo) does the source give for `CNC1(c2ccccc2Cl)CCCCC1=O` (stereo not shown) [Ketamine] here?
A: 2 to 3 h

Q: What about the “BIOAV[…]” value ([2]; in vivo, im) of the same molecule?
A: IM: 90-93%, PO: 16%

Q: For `COc1ccc2c(c1)N(C[C@H](C)CN(C)C)c1ccccc1S2` [Levomepromazine], which “ORAL BIOAVAILABILITY” value ([2]; Table CYP2D6) is on record?
A: 50-60% ^

Q: Which “HALF LIFE” value ([1]; Table CYP1A2) does the source give for `COc1ccc2[nH]cc(CCNC(C)=O)c2c1` [Melatonin] here?
A: 0.583 to 0.833 h
